What was measured:
fibrillar Aβ aggregates = fibrillar Aβ aggregates (Homo sapiens, UniProt P05067); settings: Mathis et al. 1997; read-out: inhibition constants (Ki) for binding to fibrillar Aβ aggregates; cited from earlier work
Aβ plaques = experiment: Film autoradiography of postmortem AD brain sections; format: binding, human
Protocol: [^18F]tracers: Brain sections from AD subjects were obtained by freezing the brain in powdered dry ice and cut into 20 micrometer-thick sections. The sections were incubated with [^18F]tracers (200,000-250,000 cpm/200 μl) for 1 hr at room temperature. The sections were then dipped in saturated Li2CO3 in 40% EtOH (two two-minute washes) and washed with 40% EtOH (one two-minute wash) followed by rinsing with water for 30 sec. After drying, the ^18F-labeled sections were exposed to Kodak MR film overnight.

[1] = molecular target: amyloid plaques in AD brain homogenates (Homo sapiens, UniProt P05067); settings: displacement of 125I-IMPY binding
Protocol: Values represent potencies (Ki) of compounds for displacement of ^125I-IMPY binding to amyloid plaques in AD brain homogenates.
Competition binding assays were carried out in 12×75 mm borosilicate glass tubes. The reaction mixture contained 50 μl of pooled AD brain homogenates (20-50 μg), 50 μl of [^125I]IMPY (0.04-0.06 nM diluted in PBS) and 50 μl of inhibitors (10^−5-10^10 M diluted serially in PBS containing 0.1% bovine serum albumin) in a final volume of 1 ml. Nonspecific binding was defined in the presence of 600 nM IMPY in the same assay tubes. The mixture was incubated at 37° C. for 2 h and the bound and the free radioactivity were separated by vacuum filtration through Whatman GF/B filters using a Brandel M-24R cell harvester followed by 2×3 ml washes of PBS at room temperature. Filters containing the bound 1-125 ligand were counted in a gamma counter (Packard 5000) with 70% counting efficiency. Under the assay conditions, the specifically bound fraction was less than 15% of the total radioactivity. The results of inhibition experiments were subjected to nonlinear regression analysis using equilibrium binding data analysis from which Ki values were calculated.

[2] = Organ distribution in normal ICR mice after iv injection of radiolabeled tracer; format: in vivo; settings: 5% EtOH in saline
Protocol: The mice (n=3 for each time point) were sacrificed by cervical dislocation at designated time-points post injection. The organs of interest were removed and weighed, and the radioactivity was counted with an automatic gamma counter. The percentage dose per organ was calculated by a comparison of the tissue counts to suitably diluted aliquots of the injected material. The total activity of the blood was calculated under the assumption that it is 7% of the total body weight. The % dose/g of samples was calculated by comparing the sample counts with the count of the diluted initial dose.

[3] = tested on: pooled AD and control brain tissue homogenates; experiment: Specific binding of [18F]2 to pooled AD and control brain tissue homogenates; design: species or system human
Source text: FIG. 8 depicts specific binding of [^18F]2 to pooled AD and control brain tissue homogenates. Gray and white matters were dissected from the cortical regions. […] The values presented are the mean±SEM of six measurements.

[4] = 2 min, second organ list r16-r25
[5] = 30 min, first organ list r6-r15
[6] = 30 min, second organ list r16-r25
[7] = 1 hr, second organ list r16-r25
[8] = 2 hr, second organ list r16-r25

Chain of fibrillar Aβ aggregates (P05067 672-711 limits assumed): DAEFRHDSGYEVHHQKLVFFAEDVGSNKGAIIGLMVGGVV
Chain of amyloid plaques in AD brain homogenates (P05067 672-711): as the sequence (P05067 672-711 limits assumed) above

O=C(O)c1cc(/N=N/c2ccc(-c3ccc(/N=N/c4ccc(O)c(C(=O)O)c4)cc3)cc2)ccc1O [CG, chrysamine-G]
Ki (fibrillar Aβ aggregates): 370 nM

CN(C)c1ccc(/C=C/c2ccc(OCCOCCOCCF)nc2)cc1 [Compound 2, (E)-2-(2-(2-(2-fluoroethoxy)ethoxy)ethoxy)-5-(4-dimethylaminostyryl)pyridine]
autoradiography result (Aβ plaques): confirmed the specific binding related to the presence of Aβ plaques
Ki [1]: 2.5 ± 0.4 nM

CN(C)c1ccc(/C=C/c2ccc(OCCOCCOCCF)nc2)cc1 [[^18F]2, (E)-2-(2-(2-(2-fluoroethoxy)ethoxy)ethoxy)-5-(4-dimethylaminostyryl)pyridine]
Biodistribution: Blood ([2]; 2 min, first organ list r6-r15): 6.05 ± 0.33 % dose/g
Biodistribution: Bone ([2]; 2 min, first organ list r6-r15): 5.97 ± 0.56 % dose/g
Biodistribution: Brain ([2]; 2 min, first organ list r6-r15): 3.49 ± 0.58 % dose/g
Biodistribution: Heart ([2]; 2 min, first organ list r6-r15): 0.75 ± 0.14 % dose/g
Biodistribution: Kidney ([2]; 2 min, first organ list r6-r15): 6.38 ± 0.95 % dose/g
Biodistribution: Liver ([2]; 2 min, first organ list r6-r15): 24.90 ± 1.49 % dose/g
Biodistribution: Lung ([2]; 2 min, first organ list r6-r15): 1.07 ± 0.20 % dose/g
Biodistribution: Muscle ([2]; 2 min, first organ list r6-r15): 7.03 ± 1.30 % dose/g
Biodistribution: Skin ([2]; 2 min, first organ list r6-r15): 2.52 ± 0.24 % dose/g
Biodistribution: Spleen ([2]; 2 min, first organ list r6-r15): 0.43 ± 0.11 % dose/g
Biodistribution: Blood [2, 4]: 3.04 ± 0.29 % dose/g
Biodistribution: Bone [2, 4]: 1.49 ± 0.08 % dose/g
Biodistribution: Brain [2, 4]: 7.77 ± 1.34 % dose/g
Biodistribution: Kidney [2, 4]: 14.19 ± 2.34 % dose/g
Biodistribution: Liver [2, 4]: 17.00 ± 0.69 % dose/g
Biodistribution: Lung [2, 4]: 5.65 ± 0.89 % dose/g
Biodistribution: Muscle [2, 4]: 0.62 ± 0.10 % dose/g
Biodistribution: Skin [2, 4]: 0.59 ± 0.03 % dose/g
Biodistribution: Spleen [2, 4]: 4.65 ± 0.76 % dose/g
Biodistribution: Blood [2, 5]: 2.65 ± 0.22 % dose/g
Biodistribution: Bone [2, 5]: 2.52 ± 0.34 % dose/g
Biodistribution: Brain [2, 5]: 0.48 ± 0.07 % dose/g
Biodistribution: Heart [2, 5]: 0.17 ± 0.03 % dose/g
Biodistribution: Kidney [2, 5]: 1.68 ± 0.11 % dose/g
Biodistribution: Liver [2, 5]: 9.26 ± 0.83 % dose/g
Biodistribution: Lung [2, 5]: 0.30 ± 0.01 % dose/g
Biodistribution: Muscle [2, 5]: 8.58 ± 0.26 % dose/g
Biodistribution: Skin [2, 5]: 3.99 ± 0.34 % dose/g
Biodistribution: Spleen [2, 5]: 0.15 ± 0.05 % dose/g
Biodistribution: Blood [2, 6]: 1.33 ± 0.16 % dose/g
Biodistribution: Bone [2, 6]: 0.63 ± 0.12 % dose/g
Biodistribution: Brain [2, 6]: 1.03 ± 0.11 % dose/g
Biodistribution: Heart [2, 6]: 1.28 ± 0.16 % dose/g
Biodistribution: Kidney [2, 6]: 3.77 ± 0.36 % dose/g
Biodistribution: Liver [2, 6]: 7.21 ± 0.69 % dose/g
Biodistribution: Lung [2, 6]: 1.73 ± 0.17 % dose/g
Biodistribution: Muscle [2, 6]: 0.75 ± 0.04 % dose/g
Biodistribution: Skin [2, 6]: 0.93 ± 0.13 % dose/g
Biodistribution: Spleen [2, 6]: 1.57 ± 0.51 % dose/g
Biodistribution: Blood ([2]; 1 hr, first organ list r6-r15): 3.48 ± 0.47 % dose/g
Biodistribution: Bone ([2]; 1 hr, first organ list r6-r15): 4.39 ± 0.40 % dose/g
Biodistribution: Brain ([2]; 1 hr, first organ list r6-r15): 0.55 ± 0.10 % dose/g
Biodistribution: Heart ([2]; 1 hr, first organ list r6-r15): 0.22 ± 0.03 % dose/g
Biodistribution: Kidney ([2]; 1 hr, first organ list r6-r15): 1.96 ± 0.21 % dose/g
Biodistribution: Liver ([2]; 1 hr, first organ list r6-r15): 10.52 ± 2.18 % dose/g
Biodistribution: Lung ([2]; 1 hr, first organ list r6-r15): 0.35 ± 0.07 % dose/g
Biodistribution: Muscle ([2]; 1 hr, first organ list r6-r15): 10.62 ± 2.59 % dose/g
Biodistribution: Skin ([2]; 1 hr, first organ list r6-r15): 4.42 ± 0.65 % dose/g
Biodistribution: Spleen ([2]; 1 hr, first organ list r6-r15): 0.13 ± 0.03 % dose/g
Biodistribution: Blood [2, 7]: 1.80 ± 0.16 % dose/g
Biodistribution: Bone [2, 7]: 1.13 ± 0.01 % dose/g
Biodistribution: Brain [2, 7]: 1.28 ± 0.20 % dose/g
Biodistribution: Heart [2, 7]: 1.66 ± 0.24 % dose/g
Biodistribution: Kidney [2, 7]: 4.29 ± 0.52 % dose/g
Biodistribution: Liver [2, 7]: 8.13 ± 1.42 % dose/g
Biodistribution: Lung [2, 7]: 1.82 ± 0.31 % dose/g
Biodistribution: Muscle [2, 7]: 0.95 ± 0.18 % dose/g
Biodistribution: Skin [2, 7]: 1.06 ± 0.09 % dose/g
Biodistribution: Spleen [2, 7]: 1.56 ± 0.17 % dose/g
Biodistribution: Blood ([2]; 2 hr, first organ list r6-r15): 2.15 ± 0.25 % dose/g
Biodistribution: Bone ([2]; 2 hr, first organ list r6-r15): 6.49 ± 0.08 % dose/g
Biodistribution: Brain ([2]; 2 hr, first organ list r6-r15): 0.37 ± 0.08 % dose/g
Biodistribution: Heart ([2]; 2 hr, first organ list r6-r15): 0.18 ± 0.08 % dose/g
Biodistribution: Kidney ([2]; 2 hr, first organ list r6-r15): 0.96 ± 1.58 % dose/g
Biodistribution: Liver ([2]; 2 hr, first organ list r6-r15): 6.86 ± 0.59 % dose/g
Biodistribution: Lung ([2]; 2 hr, first organ list r6-r15): 0.20 ± 0.36 % dose/g
Biodistribution: Muscle ([2]; 2 hr, first organ list r6-r15): 5.96 ± 0.06 % dose/g
Biodistribution: Skin ([2]; 2 hr, first organ list r6-r15): 2.91 ± 0.16 % dose/g
Biodistribution: Spleen ([2]; 2 hr, first organ list r6-r15): 0.10 ± 0.17 % dose/g
Biodistribution: Blood [2, 8]: 1.08 ± 0.06 % dose/g
Biodistribution: Bone [2, 8]: 1.64 ± 0.50 % dose/g
Biodistribution: Brain [2, 8]: 0.84 ± 0.08 % dose/g
Biodistribution: Heart [2, 8]: 1.32 ± 0.33 % dose/g
Biodistribution: Kidney [2, 8]: 2.19 ± 0.36 % dose/g
Biodistribution: Liver [2, 8]: 4.96 ± 0.90 % dose/g
Biodistribution: Lung [2, 8]: 0.98 ± 0.08 % dose/g
Biodistribution: Muscle [2, 8]: 0.52 ± 0.08 % dose/g
Biodistribution: Skin [2, 8]: 0.68 ± 0.16 % dose/g
Biodistribution: Spleen [2, 8]: 1.14 ± 0.18 % dose/g
specific binding ([3]; AD brain homogenates, gray matter): High specific binding
specific binding ([3]; AD brain, white matter homogenates): Relatively low binding
specific binding ([3]; control brain homogenates, grey or white matter): significantly lower specific binding

From US8840866B2, “Styrylpyridine derivatives and their use for binding and imaging amyloid plaques” (The Trustees of the University of Pennsylvania, priority 2006, dated 2014)
